# Data published in the supplement of paper PMC10307832.
# What was measured:
# Assay in all cases: relative viability (nuclei count vs DMSO), 5 days (fraction); higher = more cells survive
# Omipalisib = compound: COc1ncc(-c2ccc3nccc(-c4ccnnc4)c3c2)cc1NS(=O)(=O)c1ccc(F)cc1F [Omipalisib]
# In short: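 Hoechst staining, done together with fixation and permeabilisation, marked nuclei for 4× imaging and MetaXpress counting. This followed 5 days without medium change after lung cancer cell lines, kept overnight at 37 °C in 1536-well plates, were pinned with five library-drug doses (not always all listed) spaced by √10 on vehicle-anchored plates. Viability is the ratio of treated-well to vehicle-well nuclei, expressed as a median across plates. Plates passed only at control CV below 25% with at least one doubling.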
# Omipalisib + Navitoclax = compound: COc1ncc(-c2ccc3nccc(-c4ccnnc4)c3c2)cc1NS(=O)(=O)c1ccc(F)cc1F [Omipalisib] + CC1(C)CCC(c2ccc(Cl)cc2)=C(CN2CCN(c3ccc(C(=O)NS(=O)(=O)c4ccc(N[C@H](CCN5CCOCC5)CSc5ccccc5)c(S(=O)(=O)C(F)(F)F)c4)cc3)CC2)C1 [Navitoclax] (partner 0.5 µM)
# In short: (§1)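 Relative viability divides the nuclei count in treated wells by that in vehicle wells. Lung cancer cell lines were seeded in 1536-well plates, dosed by pin tool the next day, and fixed and stained after 5 days in one step with final 0.05% Triton X-100, 1% formaldehyde and 1 ug/ml Hoechst. Dosing was a single drug or a fixed anchor-drug dose plus five library-drug doses (not always all listed) in √10 steps, and values are medians of duplicate plates imaged at 4×.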
# Omipalisib + Phenformin = compound: COc1ncc(-c2ccc3nccc(-c4ccnnc4)c3c2)cc1NS(=O)(=O)c1ccc(F)cc1F [Omipalisib] + N=C(N)NC(=N)NCCc1ccccc1 [Phenformin] (partner 250 µM)
# In short: as §1
# Omipalisib + Alpelisib = compound: COc1ncc(-c2ccc3nccc(-c4ccnnc4)c3c2)cc1NS(=O)(=O)c1ccc(F)cc1F [Omipalisib] + Cc1nc(NC(=O)N2CCC[C@H]2C(N)=O)sc1-c1ccnc(C(C)(C)C(F)(F)F)c1 [Alpelisib] (partner 2 µM)
# In short: as §1
# Omipalisib + Crizotinib = compound: COc1ncc(-c2ccc3nccc(-c4ccnnc4)c3c2)cc1NS(=O)(=O)c1ccc(F)cc1F [Omipalisib] + C[C@@H](Oc1cc(-c2cnn(C3CCNCC3)c2)cnc1N)c1c(Cl)ccc(F)c1Cl [Crizotinib] (partner 1 µM)
# In short: as §1
# Omipalisib + Olaparib = compound: COc1ncc(-c2ccc3nccc(-c4ccnnc4)c3c2)cc1NS(=O)(=O)c1ccc(F)cc1F [Omipalisib] + O=C(c1cc(Cc2n[nH]c(=O)c3ccccc23)ccc1F)N1CCN(C(=O)C2CC2)CC1 [Olaparib] (partner 8 µM)
# In short: as §1
# Omipalisib + Lapatinib = compound: COc1ncc(-c2ccc3nccc(-c4ccnnc4)c3c2)cc1NS(=O)(=O)c1ccc(F)cc1F [Omipalisib] + CS(=O)(=O)CCNCc1ccc(-c2ccc3ncnc(Nc4ccc(OCc5cccc(F)c5)c(Cl)c4)c3c2)o1 [Lapatinib] (partner 2 µM)
# In short: as §1
# Omipalisib + Decitabine = compound: COc1ncc(-c2ccc3nccc(-c4ccnnc4)c3c2)cc1NS(=O)(=O)c1ccc(F)cc1F [Omipalisib] + Nc1ncn([C@H]2C[C@H](O)[C@@H](CO)O2)c(=O)n1 [Decitabine] (partner 2 µM)
# In short: as §1
# Omipalisib + Pictilisib = compound: COc1ncc(-c2ccc3nccc(-c4ccnnc4)c3c2)cc1NS(=O)(=O)c1ccc(F)cc1F [Omipalisib] + CS(=O)(=O)N1CCN(Cc2cc3nc(-c4cccc5[nH]ncc45)nc(N4CCOCC4)c3s2)CC1 [Pictilisib] (partner 1 µM)
# In short: as §1
# Omipalisib + Linsitinib = compound: COc1ncc(-c2ccc3nccc(-c4ccnnc4)c3c2)cc1NS(=O)(=O)c1ccc(F)cc1F [Omipalisib] + C[C@]1(O)C[C@@H](c2nc(-c3ccc4ccc(-c5ccccc5)nc4c3)c3c(N)nccn32)C1 [Linsitinib] (partner 1 µM)
# In short: as §1
# Omipalisib + Foretinib = compound: COc1ncc(-c2ccc3nccc(-c4ccnnc4)c3c2)cc1NS(=O)(=O)c1ccc(F)cc1F [Omipalisib] + COc1cc2c(Oc3ccc(NC(=O)C4(C(=O)Nc5ccc(F)cc5)CC4)cc3F)ccnc2cc1OCCCN1CCOCC1 [Foretinib] (partner 0.25 µM)
# In short: as §1
# Omipalisib + Bortezomib = compound: COc1ncc(-c2ccc3nccc(-c4ccnnc4)c3c2)cc1NS(=O)(=O)c1ccc(F)cc1F [Omipalisib] + CC(C)C[C@H](NC(=O)[C@H](Cc1ccccc1)NC(=O)c1cnccn1)B(O)O [Bortezomib] (partner 0.002 µM)
# In short: as §1
cell line,measurement,setting,value
A549,relative viability,Omipalisib; 0.0003 µM,0.923
same,relative viability,Omipalisib; 0.003 µM,0.625
same,relative viability,Omipalisib; 0.03 µM,0.323
same,relative viability,Omipalisib + Navitoclax; first compound 0.0003 µM,1.07
same,relative viability,Omipalisib + Navitoclax; first compound 0.003 µM,0.91
same,relative viability,Omipalisib + Navitoclax; first compound 0.03 µM,0.437
same,relative viability,Omipalisib + Phenformin; first compound 0.0003 µM,0.157
same,relative viability,Omipalisib + Phenformin; first compound 0.003 µM,0.113
same,relative viability,Omipalisib + Phenformin; first compound 0.03 µM,0.0802
same,relative viability,Omipalisib + Alpelisib; first compound 0.0003 µM,0.665
same,relative viability,Omipalisib + Alpelisib; first compound 0.003 µM,0.55
same,relative viability,Omipalisib + Alpelisib; first compound 0.03 µM,0.179
same,relative viability,Omipalisib + Crizotinib; first compound 0.0003 µM,0.64
same,relative viability,Omipalisib + Crizotinib; first compound 0.003 µM,0.531
same,relative viability,Omipalisib + Crizotinib; first compound 0.03 µM,0.139
same,relative viability,Omipalisib + Olaparib; first compound 0.0003 µM,0.206
same,relative viability,Omipalisib + Olaparib; first compound 0.003 µM,0.174
same,relative viability,Omipalisib + Olaparib; first compound 0.03 µM,0.0441
same,relative viability,Omipalisib + Lapatinib; first compound 0.0003 µM,0.912
same,relative viability,Omipalisib + Lapatinib; first compound 0.003 µM,0.715
same,relative viability,Omipalisib + Lapatinib; first compound 0.03 µM,0.227
same,relative viability,Omipalisib + Decitabine; first compound 0.0003 µM,0.304
same,relative viability,Omipalisib + Decitabine; first compound 0.003 µM,0.224
same,relative viability,Omipalisib + Decitabine; first compound 0.03 µM,0.176
same,relative viability,Omipalisib + Pictilisib; first compound 0.0003 µM,0.457
same,relative viability,Omipalisib + Pictilisib; first compound 0.003 µM,0.454
same,relative viability,Omipalisib + Pictilisib; first compound 0.03 µM,0.254
same,relative viability,Omipalisib + Linsitinib; first compound 0.0003 µM,0.438
same,relative viability,Omipalisib + Linsitinib; first compound 0.003 µM,0.421
same,relative viability,Omipalisib + Linsitinib; first compound 0.03 µM,0.218
same,relative viability,Omipalisib + Foretinib; first compound 0.0003 µM,0.892
same,relative viability,Omipalisib + Foretinib; first compound 0.003 µM,0.838
same,relative viability,Omipalisib + Foretinib; first compound 0.03 µM,0.319
Calu-6,relative viability,Omipalisib; 0.0003 µM,1.09
same,relative viability,Omipalisib; 0.003 µM,0.986
same,relative viability,Omipalisib; 0.03 µM,0.861
same,relative viability,Omipalisib + Navitoclax; first compound 0.0003 µM,0.882
same,relative viability,Omipalisib + Navitoclax; first compound 0.003 µM,0.848
same,relative viability,Omipalisib + Navitoclax; first compound 0.03 µM,0.452
same,relative viability,Omipalisib + Alpelisib; first compound 0.0003 µM,0.889
same,relative viability,Omipalisib + Alpelisib; first compound 0.003 µM,0.864
same,relative viability,Omipalisib + Alpelisib; first compound 0.03 µM,0.755
same,relative viability,Omipalisib + Crizotinib; first compound 0.0003 µM,0.904
same,relative viability,Omipalisib + Crizotinib; first compound 0.003 µM,0.813
same,relative viability,Omipalisib + Crizotinib; first compound 0.03 µM,0.681
same,relative viability,Omipalisib + Bortezomib; first compound 0.0003 µM,0.982
same,relative viability,Omipalisib + Bortezomib; first compound 0.003 µM,0.951
same,relative viability,Omipalisib + Bortezomib; first compound 0.03 µM,0.865
same,relative viability,Omipalisib + Olaparib; first compound 0.0003 µM,0.658
same,relative viability,Omipalisib + Olaparib; first compound 0.003 µM,0.625
same,relative viability,Omipalisib + Olaparib; first compound 0.03 µM,0.542
same,relative viability,Omipalisib + Lapatinib; first compound 0.0003 µM,1.05
same,relative viability,Omipalisib + Lapatinib; first compound 0.003 µM,1
same,relative viability,Omipalisib + Lapatinib; first compound 0.03 µM,0.795
same,relative viability,Omipalisib + Pictilisib; first compound 0.0003 µM,0.996
same,relative viability,Omipalisib + Pictilisib; first compound 0.003 µM,0.879
same,relative viability,Omipalisib + Pictilisib; first compound 0.03 µM,0.775
same,relative viability,Omipalisib + Linsitinib; first compound 0.0003 µM,0.842
same,relative viability,Omipalisib + Linsitinib; first compound 0.003 µM,0.931
same,relative viability,Omipalisib + Linsitinib; first compound 0.03 µM,0.815
same,relative viability,Omipalisib + Foretinib; first compound 0.0003 µM,0.894
same,relative viability,Omipalisib + Foretinib; first compound 0.003 µM,0.844
same,relative viability,Omipalisib + Foretinib; first compound 0.03 µM,0.754
EBC-1,relative viability,Omipalisib; 0.0003 µM,0.957
same,relative viability,Omipalisib; 0.003 µM,0.821
same,relative viability,Omipalisib; 0.03 µM,0.325
same,relative viability,Omipalisib + Navitoclax; first compound 0.0003 µM,0.337
same,relative viability,Omipalisib + Navitoclax; first compound 0.003 µM,0.243
same,relative viability,Omipalisib + Navitoclax; first compound 0.03 µM,0.137
same,relative viability,Omipalisib + Alpelisib; first compound 0.0003 µM,0.906
same,relative viability,Omipalisib + Alpelisib; first compound 0.003 µM,0.692
same,relative viability,Omipalisib + Alpelisib; first compound 0.03 µM,0.259
same,relative viability,Omipalisib + Crizotinib; first compound 0.0003 µM,0.218
same,relative viability,Omipalisib + Crizotinib; first compound 0.003 µM,0.183
same,relative viability,Omipalisib + Crizotinib; first compound 0.03 µM,0.212
same,relative viability,Omipalisib + Bortezomib; first compound 0.0003 µM,0.605
same,relative viability,Omipalisib + Bortezomib; first compound 0.003 µM,0.549
same,relative viability,Omipalisib + Bortezomib; first compound 0.03 µM,0.263
same,relative viability,Omipalisib + Olaparib; first compound 0.0003 µM,0.67
same,relative viability,Omipalisib + Olaparib; first compound 0.003 µM,0.57
same,relative viability,Omipalisib + Olaparib; first compound 0.03 µM,0.193
same,relative viability,Omipalisib + Lapatinib; first compound 0.0003 µM,0.211
same,relative viability,Omipalisib + Lapatinib; first compound 0.003 µM,0.216
same,relative viability,Omipalisib + Lapatinib; first compound 0.03 µM,0.202
same,relative viability,Omipalisib + Pictilisib; first compound 0.0003 µM,0.428
same,relative viability,Omipalisib + Pictilisib; first compound 0.003 µM,0.395
same,relative viability,Omipalisib + Pictilisib; first compound 0.03 µM,0.191
same,relative viability,Omipalisib + Linsitinib; first compound 0.0003 µM,0.822
same,relative viability,Omipalisib + Linsitinib; first compound 0.003 µM,0.521
same,relative viability,Omipalisib + Linsitinib; first compound 0.03 µM,0.405
same,relative viability,Omipalisib + Foretinib; first compound 0.0003 µM,0.114
same,relative viability,Omipalisib + Foretinib; first compound 0.003 µM,0.102
same,relative viability,Omipalisib + Foretinib; first compound 0.03 µM,0.0896
